Reference: PubChem BioAssay AID248 (DTP/NCI, 2004)
Several values for one entry are separate records, joined by “and”; a condition that tells them apart may be missing. Equal entries are not always repeated. Inconclusive results and toxic doses are left out.

Test system: L1210 leukemia ip in BDF1 mice, survival T/C
Assay: NCI In Vivo Anticancer Drug Screen. Data for tumor model L1210 Leukemia (intraperitoneal) in B6D2F1 (BDF1) mice
Conditions: endpoint: mean survival time, higher = longer survival
In short: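 Value reflects the ratio of survival in compound-treated mice to survival in vehicle-treated controls, with both groups carrying the same transplanted tumor.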

[1] = dose: 50.0 mg/kg/injection, schedule: Q01DX009 (ip), vehicle: saline with Tween-80

Cc1ccc2ccccc2c1OC(C)C(=O)O (stereo not drawn)
T/C [1]: 108 % of control | T/C (dose: 100.0 mg/kg/injection, schedule: Q01DX009 (ip), vehicle: saline with Tween-80): 95 % of control | T/C (dose: 100.0 mg/kg/injection, schedule: Q04DX003 (ip), vehicle: alcohol): 95 % of control | T/C (dose: 200.0 mg/kg/injection, schedule: Q01DX009 (ip), vehicle: saline with Tween-80): 113 % of control | T/C (dose: 200.0 mg/kg/injection, schedule: Q04DX003 (ip), vehicle: alcohol): 93 % of control

N#CCCN(C(=O)Nc1ccc(Cl)c(Cl)c1)C1CCCCC1
T/C (dose: 100.0 mg/kg/injection, schedule: Q04DX002 (ip), vehicle: Klucel (hydroxypropylcellulose) (HPC)): 107 % of control | T/C (dose: 200.0 mg/kg/injection, schedule: Q04DX002 (ip), vehicle: Klucel (hydroxypropylcellulose) (HPC)): 100 % of control | T/C (dose: 400.0 mg/kg/injection, schedule: Q04DX002 (ip), vehicle: Klucel (hydroxypropylcellulose) (HPC)): 111 % of control

CCOC(=O)/C=C/c1ccc([N+](=O)[O-])cc1
T/C (dose: 100.0 mg/kg/injection, schedule: Q04DX003 (ip), vehicle: Klucel (hydroxypropylcellulose) (HPC)): 95 % of control | T/C (dose: 200.0 mg/kg/injection, schedule: Q04DX003 (ip), vehicle: Klucel (hydroxypropylcellulose) (HPC)): 102 % of control | T/C (dose: 400.0 mg/kg/injection, schedule: Q04DX003 (ip), vehicle: Klucel (hydroxypropylcellulose) (HPC)): 98 % of control

C[CH2][Sb]([CH2]C)([CH2]C)([O]C(C)=O)[O]C(C)=O
T/C (dose: 5.0 mg/kg/injection, schedule: Q04DX002 (ip), vehicle: saline with Tween-80): 97 % of control | T/C (dose: 10.0 mg/kg/injection, schedule: Q04DX002 (ip), vehicle: saline with Tween-80): 97 % of control | T/C (dose: 20.0 mg/kg/injection, schedule: Q04DX002 (ip), vehicle: saline with Tween-80): 104 % of control

O=C(CCCCc1ccc([N+](=O)[O-])cc1)Nc1ccc(S(=O)(=O)F)cc1
T/C (dose: 50.0 mg/kg/injection, schedule: Q01DX009 (ip), vehicle: Klucel (hydroxypropylcellulose) (HPC)): 102 % of control | T/C (dose: 100.0 mg/kg/injection, schedule: Q01DX009 (ip), vehicle: Klucel (hydroxypropylcellulose) (HPC)): 100 % of control | T/C (dose: 200.0 mg/kg/injection, schedule: Q01DX009 (ip), vehicle: Klucel (hydroxypropylcellulose) (HPC)): 88 % of control

c1cc[c]([Sn]([c]2ccccc2)[c]2ccccc2)cc1.c1ccc([Si](c2ccccc2)c2ccccc2)cc1
T/C (dose: 64.0 mg/kg/injection, schedule: Q04DX002 (ip), vehicle: saline with Tween-80): 86 % of control | T/C (dose: 160.0 mg/kg/injection, schedule: Q04DX002 (ip), vehicle: saline with Tween-80): 86 % of control | T/C (dose: 400.0 mg/kg/injection, schedule: Q04DX002 (ip), vehicle: saline with Tween-80): 86 % of control

NC(CSC(c1ccccc1)(c1ccccc1)c1ccc2ccccc2c1)C(=O)O (stereo not drawn)
T/C (dose: 0.74 mg/kg/injection, schedule: Q01DX009 (ip), vehicle: saline): 124 % of control | T/C (dose: 3.13 mg/kg/injection, schedule: Q01DX009 (ip), vehicle: saline): 159 % of control | T/C (dose: 6.25 mg/kg/injection, schedule: Q01DX009 (ip), vehicle: saline): 187 % of control | T/C (dose: 6.3 mg/kg/injection, schedule: Q01DX009 (ip), vehicle: other): 166 % of control | T/C (dose: 12.5 mg/kg/injection, schedule: Q01DX009 (ip), vehicle: saline): 108 % of control | T/C (dose: 25.0 mg/kg/injection, schedule: Q01DX009 (ip), vehicle: other): 94 % of control | T/C (dose: 25.0 mg/kg/injection, schedule: Q01DX009 (ip), vehicle: saline): 225 % of control | T/C (dose: 50.0 mg/kg/injection, schedule: Q01DX009 (ip), vehicle: saline): 103 % of control

CN(C)/N=C\c1ccccc1Cl
T/C (dose: 12.5 mg/kg/injection, schedule: Q01DX009 (ip), vehicle: saline with Tween-80): 91 % of control | T/C (dose: 25.0 mg/kg/injection, schedule: Q01DX009 (ip), vehicle: saline with Tween-80): 102 % of control | T/C [1]: 100 % of control and 101 % of control | T/C (dose: 100.0 mg/kg/injection, schedule: Q01DX001 (ip), vehicle: saline with Tween-80): 100 % of control | T/C (dose: 100.0 mg/kg/injection, schedule: Q04DX003 (ip), vehicle: saline with Tween-80): 101 % of control | T/C (dose: 200.0 mg/kg/injection, schedule: Q01DX001 (ip), vehicle: saline with Tween-80): 96 % of control | T/C (dose: 200.0 mg/kg/injection, schedule: Q04DX003 (ip), vehicle: saline with Tween-80): 98 % of control | T/C (dose: 400.0 mg/kg/injection, schedule: Q01DX001 (ip), vehicle: saline with Tween-80): 117 % of control

COC(=O)CSC/C(=N\Nc1ccccc1)c1ccccc1
T/C (dose: 50.0 mg/kg/injection, schedule: Q04DX003 (ip), vehicle: saline): 106 % of control | T/C (dose: 100.0 mg/kg/injection, schedule: Q01DX001 (ip), vehicle: saline): 104 % of control | T/C (dose: 100.0 mg/kg/injection, schedule: Q04DX003 (ip), vehicle: saline): 94 % of control | T/C (dose: 200.0 mg/kg/injection, schedule: Q01DX001 (ip), vehicle: saline): 98 % of control | T/C (dose: 200.0 mg/kg/injection, schedule: Q04DX003 (ip), vehicle: saline): 97 % of control | T/C (dose: 400.0 mg/kg/injection, schedule: Q01DX001 (ip), vehicle: saline): 93 % of control | T/C (dose: 400.0 mg/kg/injection, schedule: Q04DX003 (ip), vehicle: saline): 89 % of control
